These results are taken from ChEMBL document CHEMBL1133079, “Synthesis and antibacterial activity of novel 6-O-substituted erythromycin A derivatives” (2000).

Molecules are shown by their SMILES. Values after ≈ are worked out from the molar mass of the structure shown.

Assay [1] has as its system Streptococcus pyogenes. Kind of assay: In vitro minimum inhibitory concentration against Streptococcus pyogenes 930 using standard agar dilution method. In kind it is functional. On the technique in general: In agar dilution the substance is mixed into plates at graded concentrations.
The test system of assay [2] is Streptococcus pneumoniae. Kind of assay: In vitro minimum inhibitory concentration against Streptococcus pneumoniae 5737. The class given is functional.
Assay [3] relates to Streptococcus pyogenes. Kind of assay: In vitro minimum inhibitory concentration against Streptococcus pyogenes EES61 using standard agar dilution method. The class given is functional.
Assay [4] deals with Haemophilus influenzae. Kind of assay: In vitro minimum inhibitory concentration against Haemophilus influenzae DILL using standard agar dilution method. The class given is functional.
For assay [5], the system named is Streptococcus pneumoniae. Kind of assay: In vitro minimum inhibitory concentration against Streptococcus pneumoniae 5649. In kind it is functional.
For assay [6], the system named is Staphylococcus aureus. Kind of assay: In vitro minimum inhibitory concentration against Staphylococcus aureus 6538P using standard agar dilution method. In kind it is functional.
In assay [7] the test system is Streptococcus pneumoniae. Kind of assay: In vitro minimum inhibitory concentration against Streptococcus pneumoniae ATCC 6303. In kind it is functional.
The subject of assay [8] is Streptococcus pyogenes. Kind of assay: In vitro minimum inhibitory concentration against Streptococcus pyogenes PIU 2548 using standard agar dilution method. In kind it is functional.
In assay [9] the test system is Staphylococcus aureus. Kind of assay: In vitro minimum inhibitory concentration against Staphylococcus aureus A5177. In kind it is functional.
Assay [10] deals with Staphylococcus aureus. Kind of assay: In vitro minimum inhibitory concentration against Staphylococcus aureus 6538P using standard agar dilution method.
Assay [11] relates to Staphylococcus aureus. Kind of assay: In vitro minimum inhibitory concentration against Staphylococcus aureus A5177 using standard agar dilution method. In kind it is functional.

In the case of `CC[C@H]1OC(=O)[C@H](C)[C@@H](O[C@H]2C[C@@](C)(OC)[C@@H](O)[C@H](C)O2)[C@H](C)[C@@H](O[C@@H]2O[C@H](C)C[C@H](N(C)C)[C@H]2O)[C@@](C)(OCCNCCCc2ccccc2)C[C@@H](C)C(=O)[C@H](C)[C@@H](O)[C@]1(C)O`, the MIC in [1] was greater than 128 µg/mL; in assay [2], greater than 128 µg/mL; in assay [3], 0.03 µg/mL (≈ 0.0335 µM); in assay [4] it was 4 µg/mL (≈ 4.47 µM); in assay [5] it was 16 µg/mL (≈ 17.9 µM); in assay [6], 0.05 µg/mL (≈ 0.0559 µM). The MIC in [7] is 0.03 µg/mL (≈ 0.0335 µM); in [8], 32 µg/mL (≈ 35.7 µM); in assay [9], 3.1 µg/mL (≈ 3.46 µM).
On to `CC[C@H]1OC(=O)[C@H](C)[C@@H](O[C@H]2C[C@@](C)(OC)[C@@H](O)[C@H](C)O2)[C@H](C)[C@@H](O[C@@H]2O[C@H](C)C[C@H](N(C)C)[C@H]2O)[C@@](C)(OC/C=N/Nc2ccccn2)C[C@@H](C)C(=O)[C@H](C)[C@@H](O)[C@]1(C)O`, for which the MIC in [1] is greater than 128 µg/mL; in assay [2], greater than 128 µg/mL; in assay [3], 0.125 µg/mL (≈ 0.144 µM); in assay [4] it was 8 µg/mL (≈ 9.23 µM); in assay [5], 64 µg/mL (≈ 73.8 µM); in assay [6] it was 0.78 µg/mL (≈ 0.9 µM). The MIC in assay [7] stood at 0.25 µg/mL (≈ 0.288 µM); in assay [8], 128 µg/mL (≈ 148 µM); in assay [9], 25 µg/mL (≈ 28.8 µM).
Take `CCCO[C@@]1(C)C[C@@H](C)C(=O)[C@H](C)[C@@H](O)[C@](C)(O)[C@@H](CC)OC(=O)[C@H](C)[C@@H](O[C@H]2C[C@@](C)(OC)[C@@H](O)[C@H](C)O2)[C@H](C)[C@H]1O[C@@H]1O[C@H](C)C[C@H](N(C)C)[C@H]1O`: the MIC in assay [1] was greater than 128 µg/mL; in [10], 3.1 µg/mL (≈ 3.99 µM); in [3] it was 0.05 µg/mL (≈ 0.0644 µM); in assay [4], 32 µg/mL (≈ 41.2 µM); in [11] it was 25 µg/mL (≈ 32.2 µM); in [8] it was 64 µg/mL (≈ 82.5 µM).
Take `CC[C@H]1OC(=O)C(C)[C@@H](O[C@H]2C[C@@](C)(OC)[C@@H](O)[C@H](C)O2)[C@H](C)[C@@H](O[C@@H]2O[C@H](C)C[C@H](N(C)C)[C@H]2O)[C@@](C)(OC/C=N/Oc2ccccc2)C[C@@H](C)C(=O)[C@H](C)[C@@H](O)[C@]1(C)O` (single isomer, unassigned): the MIC in assay [1] worked out at 128 µg/mL (≈ 148 µM); in assay [2], 128 µg/mL (≈ 148 µM); in assay [3] it was 0.008 µg/mL (≈ 0.00923 µM); in [4], 4 µg/mL (≈ 4.61 µM); in assay [5], 16 µg/mL (≈ 18.5 µM); in assay [6], 0.2 µg/mL (≈ 0.231 µM). Further, the MIC in assay [7] was 0.008 µg/mL (≈ 0.00923 µM); in [8] it was 32 µg/mL (≈ 36.9 µM); in assay [9], 3.1 µg/mL (≈ 3.58 µM).
Turning to `CC[C@H]1OC(=O)[C@H](C)[C@@H](O[C@H]2C[C@@](C)(OC)[C@@H](O)[C@H](C)O2)[C@H](C)[C@@H](O[C@@H]2O[C@H](C)C[C@H](N(C)C)[C@H]2O)[C@@](C)(OC/C=C/c2ccccc2)C[C@@H](C)C(=O)[C@H](C)[C@@H](O)[C@]1(C)O`, the MIC in assay [1] is 32 µg/mL (≈ 37.6 µM); in assay [2] it was 32 µg/mL (≈ 37.6 µM); in [3], 0.03 µg/mL (≈ 0.0353 µM); in [4] it was 4 µg/mL (≈ 4.71 µM); in [5], 4 µg/mL (≈ 4.71 µM); in assay [6], 0.39 µg/mL (≈ 0.459 µM). In addition, the MIC came out at 0.06 µg/mL (≈ 0.0706 µM) in assay [7], 16 µg/mL (≈ 18.8 µM) in assay [8] and 6.2 µg/mL (≈ 7.29 µM) in [9].
Turning to `CC[C@H]1OC(=O)[C@H](C)[C@@H](O[C@H]2C[C@@](C)(OC)[C@@H](O)[C@H](C)O2)[C@H](C)[C@@H](O[C@@H]2O[C@H](C)C[C@H](N(C)C)[C@H]2O)[C@@](C)(OCC(O)CNCCc2ccccc2)C[C@@H](C)C(=O)[C@H](C)[C@@H](O)[C@]1(C)O` (stereo not given in full), the MIC in assay [1] was greater than 64 µg/mL; in [2], 32 µg/mL (≈ 35.1 µM); in [3] it was 0.03 µg/mL (≈ 0.0329 µM); in assay [4], 4 µg/mL (≈ 4.39 µM); in assay [5], 32 µg/mL (≈ 35.1 µM); in [6], 0.2 µg/mL (≈ 0.219 µM). Moreover, the MIC in assay [7] was determined as 0.008 µg/mL (≈ 0.00878 µM); in assay [8], 16 µg/mL (≈ 17.6 µM); in assay [9] it was 6.2 µg/mL (≈ 6.8 µM).
For `CC[C@H]1OC(=O)[C@H](C)[C@@H](O[C@H]2C[C@@](C)(OC)[C@@H](O)[C@H](C)O2)[C@H](C)[C@@H](O[C@@H]2O[C@H](C)C[C@H](N(C)C)[C@H]2O)[C@@](C)(OCc2ccc(F)cc2)C[C@@H](C)C(=O)[C@H](C)[C@@H](O)[C@]1(C)O`, the MIC in [1] was found to be 8 µg/mL (≈ 9.5 µM); in assay [2], 8 µg/mL (≈ 9.5 µM); in assay [3] it was 1 µg/mL (≈ 1.19 µM); in assay [4], 64 µg/mL (≈ 76 µM); in [5], 8 µg/mL (≈ 9.5 µM); in assay [6] it was 3.1 µg/mL (≈ 3.68 µM). The MIC is 1 µg/mL (≈ 1.19 µM) in assay [7], 8 µg/mL (≈ 9.5 µM) in [8] and 12.5 µg/mL (≈ 14.8 µM) in assay [9].
For `CC[C@H]1OC(=O)[C@H](C)[C@@H](O[C@H]2C[C@@](C)(OC)[C@@H](O)[C@H](C)O2)[C@H](C)[C@@H](O[C@@H]2O[C@H](C)C[C@H](N(C)C)[C@H]2O)[C@@](C)(OC/C=N/OC)C[C@@H](C)C(=O)[C@H](C)[C@@H](O)[C@]1(C)O`, the MIC in assay [1] is greater than 128 µg/mL; in assay [2], greater than 128 µg/mL; in [3], 0.125 µg/mL (≈ 0.155 µM); in [4], 16 µg/mL (≈ 19.9 µM); in assay [5], 32 µg/mL (≈ 39.8 µM); in assay [6] it was 0.78 µg/mL (≈ 0.969 µM). The MIC in assay [7] turned out to be 0.125 µg/mL (≈ 0.155 µM); in assay [8] it was 64 µg/mL (≈ 79.5 µM); in assay [9] it was 25 µg/mL (≈ 31.1 µM).
Regarding `CC[C@H]1OC(=O)[C@H](C)[C@@H](O[C@H]2C[C@@](C)(OC)[C@@H](O)[C@H](C)O2)[C@H](C)[C@@H](O[C@@H]2O[C@H](C)C[C@H](N(C)C)[C@H]2O)[C@@](C)(OCCNCCc2ccccc2)C[C@@H](C)C(=O)[C@H](C)[C@@H](O)[C@]1(C)O`, the MIC worked out at 64 µg/mL (≈ 72.6 µM) in assay [1]; 64 µg/mL (≈ 72.6 µM) in assay [2]; 0.015 µg/mL (≈ 0.017 µM) in [3]; 2 µg/mL (≈ 2.27 µM) in assay [4]; 4 µg/mL (≈ 4.54 µM) in assay [5]; 0.2 µg/mL (≈ 0.227 µM) in [6]. In addition, the MIC in [7] is 0.03 µg/mL (≈ 0.034 µM); in assay [8], 8 µg/mL (≈ 9.08 µM); in assay [9], 12.5 µg/mL (≈ 14.2 µM).
On to `CC[C@H]1OC(=O)[C@H](C)[C@@H](O[C@H]2C[C@@](C)(OC)[C@@H](O)[C@H](C)O2)[C@H](C)[C@@H](O[C@@H]2O[C@H](C)C[C@H](N(C)C)[C@H]2O)[C@@](C)(OC/C=N/NC)C[C@@H](C)C(=O)[C@H](C)[C@@H](O)[C@]1(C)O`, for which the MIC is greater than 128 µg/mL in assay [1]; greater than 128 µg/mL in [2]; 0.06 µg/mL (≈ 0.0746 µM) in assay [3]; 8 µg/mL (≈ 9.95 µM) in assay [4]; 64 µg/mL (≈ 79.6 µM) in assay [5]; 0.78 µg/mL (≈ 0.97 µM) in assay [6]. For the same compound, the MIC was 0.125 µg/mL (≈ 0.155 µM) in assay [7], 128 µg/mL (≈ 159 µM) in [8] and 25 µg/mL (≈ 31.1 µM) in assay [9].
With `CC[C@H]1OC(=O)[C@H](C)[C@@H](O[C@H]2C[C@@](C)(OC)[C@@H](O)[C@H](C)O2)[C@H](C)[C@@H](O[C@@H]2O[C@H](C)C[C@H](N(C)C)[C@H]2O)[C@](C)(OC)C[C@@H](C)C(=O)[C@H](C)[C@@H](O)[C@]1(C)O` [CLARITHROMYCIN], the MIC is greater than 128 µg/mL in assay [1]; greater than 128 µg/mL in assay [2]; 0.03 µg/mL (≈ 0.0401 µM) in assay [3]; 8 µg/mL (≈ 10.7 µM) in [4]; 16 µg/mL (≈ 21.4 µM) in [5]; 0.2 µg/mL (≈ 0.267 µM) in [6]. For the same compound, the values for the MIC in assay [7], in assay [8] and in [9] were 0.06 µg/mL (≈ 0.0802 µM), 32 µg/mL (≈ 42.8 µM) and 6.2 µg/mL (≈ 8.29 µM), respectively.
Consider `CC[C@H]1OC(=O)[C@H](C)[C@@H](O[C@H]2C[C@@](C)(OC)[C@@H](O)[C@H](C)O2)[C@H](C)[C@@H](O[C@@H]2O[C@H](C)C[C@H](N(C)C)[C@H]2O)[C@](C)(O)C[C@@H](C)C(=O)[C@H](C)[C@@H](O)[C@]1(C)O` [ERYTHROMYCIN], for which the MIC was greater than 128 µg/mL in assay [1]; greater than 128 µg/mL in assay [2]; 0.03 µg/mL (≈ 0.0409 µM) in [3]; 4 µg/mL (≈ 5.45 µM) in assay [4]; 16 µg/mL (≈ 21.8 µM) in [5]; 0.2 µg/mL (≈ 0.273 µM) in assay [6]. In addition, the MIC was determined as 0.06 µg/mL (≈ 0.0818 µM) in assay [7], 32 µg/mL (≈ 43.6 µM) in [8] and 6.2 µg/mL (≈ 8.45 µM) in assay [9].
